Reference: ChEMBL document CHEMBL4354831, “Novel Cell-Penetrating Peptide Conjugated Proteasome Inhibitors: Anticancer and Antifungal Investigations” (J Med Chem, 2020)
Active and inactive are the calls of the source. No cut-off for these calls is given here. Peptide text beside a SMILES is read from it.

What was measured:
BE(2)-C [1] = experiment: Antiproliferative activity against human BE(2)-C cells assessed as reduction in cell viability after 48 hrs by MTT assay; assay type: functional, cell-based
HeLa [2] = experiment: Antiproliferative activity against human HeLa cells assessed as reduction in cell viability in presence of cisplatin after 48 hrs by MTT assay; assay type: functional, cell-based
BE(2)-C [3] = experiment: Ratio of IC50 for antiproliferative activity against human BE(2)-C cells to IC50 for antiproliferative activity against human BE(2)-C cells in presence of cisplatin; assay type: functional
20S proteasome = experiment: Inhibition of human 20S proteasome using Suc-LLVY-AMC as substrate measured every 5 mins for 120 mins by fluorescence based assay; assay type: protein-complex assay
HeLa [4] = experiment: Induction of membrane disruption in human HeLa cells assessed as red fluorescence at 2xIC50 after 24 hrs by SYTO9/PI-staining based inverted fluorescence microscopic analysis; details: Cell membrane
BE(2)-C [5] = experiment: Induction of membrane disruption in human BE(2)-C cells assessed as red fluorescence at 2xIC50 after 24 hrs by SYTO9/PI-staining based inverted fluorescence microscopic analysis; details: Cell membrane
HeLa [6] = experiment: Induction of membrane disruption in human HeLa cells assessed as membrane lysis at 2xIC50 after 24 hrs by SYTO9/PI-staining based inverted fluorescence microscopic analysis; details: Cell membrane
HeLa [7] = experiment: Induction of membrane disruption in human HeLa cells assessed as membrane blebbing at 2xIC50 after 24 hrs by SYTO9/PI-staining based inverted fluorescence microscopic analysis; details: Cell membrane
BE(2)-C [8] = experiment: Induction of membrane disruption in human BE(2)-C cells assessed as membrane blebbing at 2xIC50 after 24 hrs by SYTO9/PI-staining based inverted fluorescence microscopic analysis; details: Cell membrane
HeLa [9] = experiment: Induction of apoptosis in human HeLa cells assessed as DNA damage at 2xIC50 after 24 hrs by SYTO9/PI-staining based inverted fluorescence microscopic analysis; assay type: functional, cell-based
HeLa [10] = experiment: Induction of apoptosis in human HeLa cells assessed as condensed chromatin at 2xIC50 after 24 hrs by Hoechst-33342 staining based inverted fluorescence microscopic analysis; assay type: functional, cell-based
BE(2)-C [11] = experiment: Induction of apoptosis in human BE(2)-C cells assessed as condensed chromatin at 2xIC50 after 24 hrs by Hoechst-33342 staining based inverted fluorescence microscopic analysis; assay type: functional, cell-based
BE(2)-C [12] = experiment: Induction of apoptosis in human BE(2)-C cells at 2xIC50 after 24 hrs by Annexin-V alexa fluor 488/PI staining based fluorescence microscopic analysis; assay type: functional, cell-based
HeLa [13] = experiment: Induction of necrosis in human HeLa cells at 2xIC50 after 24 hrs by Annexin-V alexa fluor 488/PI staining based fluorescence microscopic analysis; assay type: functional, cell-based
BE(2)-C [14] = experiment: Induction of necrosis in human BE(2)-C cells at 2xIC50 after 24 hrs by Annexin-V alexa fluor 488/PI staining based fluorescence microscopic analysis; assay type: functional, cell-based
HeLa [15] = experiment: Induction of apoptosis in human HeLa cells assessed as apoptotic cells at 2xIC50 after 24 hrs by Alexa flour 488 annexin V/PI- staining based flow cytometric analysis relative to control; assay type: functional
HeLa [16] = experiment: Induction of apoptosis in human HeLa cells assessed as necrotic cells at 2xIC50 after 24 hrs by Alexa flour 488 annexin V/PI- staining based flow cytometric analysis relative to control; assay type: functional
BE(2)-C [17] = experiment: Induction of apoptosis in human BE(2)-C cells assessed as apoptotic cells at 2xIC50 after 24 hrs by Alexa flour 488 annexin V/PI- staining based flow cytometric analysis relative to control; assay type: functional
BE(2)-C [18] = experiment: Induction of apoptosis in human BE(2)-C cells assessed as necrotic cells at 2xIC50 after 24 hrs by Alexa flour 488 annexin V/PI- staining based flow cytometric analysis relative to control; assay type: functional
HeLa [19] = experiment: Induction of apoptosis in human HeLa cells assessed as DNA damage at 2xIC50 after 24 hrs by Hoechst-33342 staining based inverted fluorescence microscopic analysis; assay type: functional, cell-based
BE(2)-C [20] = experiment: Induction of apoptosis in human BE(2)-C cells assessed as DNA damage at 2xIC50 after 24 hrs by Hoechst-33342 staining based inverted fluorescence microscopic analysis; assay type: functional, cell-based
HeLa [21] = experiment: Induction of ROS generation in human HeLa cells after 24 hrs by DCFH-DA staining based fluorescence analysis; assay type: functional, cell-based
HeLa [22] = experiment: Induction of ROS generation in human HeLa cells at 2xIC50 by DCFH-DA staining based fluorescence analysis; assay type: functional, cell-based; details: TDE = time-dependent effect
BE(2)-C [23] = experiment: Induction of ROS generation in human BE(2)-C cells at 2xIC50 by DCFH-DA staining based fluorescence analysis; assay type: functional, cell-based; details: TDE = time-dependent effect
BE(2)-C [24] = experiment: Induction of ROS generation in human BE(2)-C cells at 2xIC50 measured up to 24 hrs in presence of ROS quencher, ascorbic acid by DCFH-DA staining based fluorescence analysis; assay type: functional, cell-based
HeLa [25] = experiment: Induction of pore formation in human HeLa cell membrane at 2xIC50 after 12 hrs by SEM analysis; assay type: cell-based
BE(2)-C [26] = experiment: Induction of pore formation in human BE(2)-C cell membrane at 2xIC50 after 12 hrs by SEM analysis; assay type: functional, cell-based
HeLa [27] = experiment: Induction of membrane blebbing in human HeLa cells at 2xIC50 after 12 hrs by SEM analysis; assay type: cell-based; details: Cell membrane
BE(2)-C [28] = experiment: Induction of membrane blebbing in human BE(2)-C cells at 2xIC50 after 12 hrs by SEM analysis; assay type: cell-based; details: Cell membrane
BE(2)-C [29] = experiment: Induction of membrane disruption in human BE(2)-C cells assessed as increase in cell debris with damaged membrane at 2xIC50 after 12 hrs by SEM analysis; assay type: cell-based
Candida albicans [30] = experiment: Potentiation of amphotericin B-induced antifungal activity against Candida albicans SC5314 assessed as amphotericin MIC after 24 to 48 hrs by checker board assay; assay type: functional
Candida albicans [31] = experiment: Antifungal activity against Candida albicans SC5314 in presence of amphotericin B after 24 to 48 hrs by checker board assay; assay type: functional
Candida albicans [32] = experiment: Synergistic antifungal activity against Candida albicans SC5314 assessed as FICI in presence of amphotericin B after 24 to 48 hrs by checker board assay; assay type: functional
Candida albicans [33] = experiment: Ratio of MIC for antifungal activity against Candida albicans SC5314 to MIC for antifungal activity against Candida albicans SC5314 in presence of amphotericin B after 24 to 48 hrs by checker board assay; assay type: functional
Candida albicans [34] = experiment: Potentiation of amphotericin B-induced antifungal activity against Candida albicans SC5314 assessed as fold reduction in amphotericin MIC after 24 to 48 hrs by checker board assay relative to amphotericin alone; assay type: functional
Candida albicans [35] = experiment: Antibiofilm activity against Candida albicans SC5314 assessed as inhibition of biofilm formation after 24 hrs by XTT-dye based assay; assay type: functional
Candida albicans [36] = experiment: Induction of pore formation in Candida albicans SC5314 membrane at 2xMBEC by SEM analysis; assay type: organism-based; details: Cell membrane
Candida albicans [37] = experiment: Induction of hyphal disruption in Candida albicans SC5314 assessed as hyphal debris at 2xMBEC by SEM analysis; assay type: organism-based; details: Hyphae
[38] = Hemolytic activity in mouse RBC at 500 uM after 1 hr relative to control; assay type: ADME, cell-based, Erythrocyte; details: red blood cells (erythrocytes), read-out: Activity

## CC(=O)N[C@@H](Cc1ccc(O)cc1)C(=O)NCC(=O)N[C@@H](CCCNC(=N)N)C(=O)N[C@@H](CCCCN)C(=O)N[C@@H](CCCCN)C(=O)N[C@@H](CCCNC(=N)N)C(=O)N[C@@H](CCCNC(=N)N)C(=O)N[C@@H](CCC(N)=O)C(=O)N[C@@H](CCCNC(=N)N)C(=O)N[C@@H](CCCNC(=N)N)C(=O)N[C@@H](CCCNC(=N)N)C(=O)NCC(=O)NCC(=O)NCC(=O)N[C@@H](CC(C)C)C(=O)N[C@@H](CC(C)C)C(=O)N[C@H](C=O)CC(C)C (Ac-YGRKKRRQRRRGGGLLL-aldehyde)
BE(2)-C [1]
  IC50: 10.3 µM
HeLa [2]
  IC50: 1.9 µM
BE(2)-C [3]
  Ratio IC50: 2.5
20S proteasome
  IC50: 0.0025 µM
HeLa [4]
  Activity: Active
BE(2)-C [5]
  Activity: Active
HeLa [6]
  Activity: Active
HeLa [7]
  Activity: Active
BE(2)-C [8]
  Activity: Active
HeLa [9]
  Activity: Active
HeLa [10]
  Activity: Active
BE(2)-C [11]
  Activity: Active
BE(2)-C [12]
  Activity: Active
HeLa [13]
  Activity: Active
BE(2)-C [14]
  Activity: Active
HeLa [15]
  Activity: 72.9%
HeLa [16]
  Activity: 4.8%
BE(2)-C [17]
  Activity: 27.2%
BE(2)-C [18]
  Activity: 64.9%
HeLa [19]
  Activity: Active
BE(2)-C [20]
  Activity: Active
HeLa [21]
  Activity: Dose-dependent effect
HeLa [22]
  Activity: Tde
BE(2)-C [23]
  Activity: Tde
BE(2)-C [24]
  Activity: inactive
HeLa [25]
  Activity: Active
BE(2)-C [26]
  Activity: Active
HeLa [27]
  Activity: Active
BE(2)-C [28]
  Activity: Active
BE(2)-C [29]
  Activity: Active
Candida albicans [30]
  MIC: 0.25 µM
Candida albicans [31]
  MIC: 6.25 µM
Candida albicans [32]
  fractional inhibitory concentration index (FICI): 0.36
Candida albicans [33]
  Ratio: 5
Candida albicans [34]
  fold change (FC): 6
Candida albicans [35]
  MBIC: 15.6 µM
Candida albicans [36]
  Activity: Active
Candida albicans [37]
  Activity: Active
[38]
  hemolysis at 1 h, 500 µM: 1%

## CC(=O)N[C@@H](Cc1ccc(O)cc1)C(=O)NCC(=O)N[C@@H](CCCNC(=N)N)C(=O)N[C@@H](CCCCN)C(=O)N[C@@H](CCCCN)C(=O)N[C@@H](CCCNC(=N)N)C(=O)N[C@@H](CCCNC(=N)N)C(=O)N[C@@H](CCC(N)=O)C(=O)N[C@@H](CCCNC(=N)N)C(=O)N[C@@H](CCCNC(=N)N)C(=O)N[C@@H](CCCNC(=N)N)C(=O)NCC(=O)NCC(=O)NCC(=O)N[C@@H](Cc1ccc(O)cc1)C(=O)N[C@@H](CC(C)C)C(=O)N[C@@H](Cc1ccccc1)C(=O)N[C@H](C=O)CC(C)C (Ac-YGRKKRRQRRRGGGYLFL-aldehyde)
BE(2)-C [1]
  IC50: 4.7 µM
HeLa [2]
  IC50: 1.16 µM
BE(2)-C [3]
  Ratio IC50: 4
20S proteasome
  IC50: 0.00428 to 0.0043 µM
HeLa [4]
  Activity: Active
BE(2)-C [5]
  Activity: Active
HeLa [6]
  Activity: Active
HeLa [7]
  Activity: Active
BE(2)-C [8]
  Activity: Active
HeLa [9]
  Activity: Active
HeLa [10]
  Activity: Active
BE(2)-C [11]
  Activity: Active
BE(2)-C [12]
  Activity: Active
HeLa [13]
  Activity: Active
BE(2)-C [14]
  Activity: Active
HeLa [15]
  Activity: 80.5%
HeLa [16]
  Activity: 2.8%
BE(2)-C [17]
  Activity: 28.3%
BE(2)-C [18]
  Activity: 65.4%
HeLa [19]
  Activity: Active
BE(2)-C [20]
  Activity: Active
HeLa [21]
  Activity: Dose-dependent effect
HeLa [22]
  Activity: Tde
BE(2)-C [23]
  Activity: Tde
BE(2)-C [24]
  Activity: inactive
HeLa [25]
  Activity: Active
BE(2)-C [26]
  Activity: Active
HeLa [27]
  Activity: Active
BE(2)-C [28]
  Activity: Active
BE(2)-C [29]
  Activity: Active
Candida albicans [30]
  MIC: 0.25 µM
Candida albicans [31]
  MIC: 3.12 µM
Candida albicans [32]
  fractional inhibitory concentration index (FICI): 0.35
Candida albicans [33]
  Ratio: 5
Candida albicans [34]
  fold change (FC): 6
Candida albicans [35]
  MBIC: 7.8 µM
Candida albicans [36]
  Activity: Active
Candida albicans [37]
  Activity: Active
[38]
  hemolysis at 1 h, 500 µM: 12%
